# In US12350250B2, “Aggrelytes for treating ocular conditions” (The Regents of the University of Colorado, a Body Corporate, priority 2022, dated 2025):
# Experiments:
# [1] = test system: β-crystallin (βC); test: Crystallin levels in solubilized human lens proteins (Western blot), βC; assay type: biochemical; conditions: 500 μM, solubilized proteins of three human lenses
# Procedure: (§1) The contents of crystalline proteins [αA-crystallin (αAC), αB-crystallin (αBC), β-crystallin (βC), and γ-crystallin (γC)] in the solubilized proteins of three human lenses treated with either Aggrelyte-2 or Aggrelyte-2C (500 μM) from Example 4 were determined by Western blot analysis as described for Example 5. Membranes were incubated with antibodies against αAC (1:14,000 dilution; Enzo Life Sciences, Catalog #ADI-SPA-221D), αBC (1:700,000 dilution; University of Iowa), βC (1:14,000 dilution; Santa Cruz Biotechnology, Catalog #sc-22745), and γC (1:7,000 dilution; Santa Cruz Biotechnology, Catalog #sc-22746). The secondary antibodies were HRP-conjugated anti-mouse IgG for αBC and HRP-conjugated […] (Cell Signaling Technology, Catalog #7074S) for αAC, βC, and γC. According to the supplier, the […] detects mostly βB1-crystallin and, to a lesser extent, βA1/3, βA2, βA4, βB2, and βB3-crystallin. The γC antibody reacts with γA, γB, γC, γD, γE, and γF-crystallin.
# [2] = test system: human lenses; test: Water-soluble (WS) protein content of aggrelyte-treated human lenses; conditions: 1 mM, 72 h
# Procedure: Water soluble (WS) proteins were obtained from both mouse and human lenses. For mouse lenses, WS protein was obtained by homogenizing each mouse lens in 0.2 mL of PBS, followed by centrifugation at 20,000×g for 20 min at 4° C. […] The remaining nucleus was homogenized in 1 mL phosphate buffer. Both cortical and nuclear protein extracts were centrifuged at 20,000×g for 20 min at 4° C. to obtain the soluble protein in the supernatant. In another set of experiments, human lenses (42-64 years), following incubation with aggrelytes as described in the foregoing examples, were each homogenized with 1.5 mL 50 mM phosphate buffer, pH 7.4. The homogenate was centrifuged at 20,000×g for 20 min to obtain a supernatant. Protein in the supernatant was evaluated to determine the effect of aggrelyte treatment on the soluble protein content in the lens.
# [3] = test system: protein thiols of solubilized human lens WI protein; test: Protein thiol content in solubilized protein from WI protein of aged lenses; assay type: biochemical; conditions: 500 μM aggrelyte, lenses 58 to 69 years old; for thiol content: 10 μg protein, GSH standard
# Procedure: Protein thiol content in the solubilized protein from WI protein from aged lenses (58 to 69 years old) was evaluated. Immediately after treatment with aggrelytes as described in the foregoing examples, 0.15 mL samples were filtered through 10 kDa cutoff centrifugal filters at 4° C. Centrifugal filtration was repeated twice by adding 0.4 mL of 50 mM N2-bubbled sodium phosphate buffer to the retentate each time. Ten micrograms of protein from the final retentate was used for thiol content estimation using a Thiol Quantification Assay Kit (Abcam, Cambridge, MA) using reduced GSH as the standard.
# [4] = test system: human (60-62 years) lens; test: Human lens transparency (separate study); conditions: data not shown
# Source text: The reduction in stiffness was similar at 400- and 500-mg loads (FIGS. 21C and 21D, respectively).
# [5] = test system: γ-crystallin (γC); test: Crystallin levels in solubilized human lens proteins (Western blot), γC; assay type: biochemical; conditions: 500 μM, solubilized proteins of three human lenses
# Procedure: as §1
# [6] = test system: human lenses; test: Stiffness and axial strain of ex vivo human lenses (Example 10); conditions: 1 mM, 72 h; for lens stiffness (displacement) vs untreated controls: human lenses (42-68 years), loads of 500 mg and 1000 mg; for axial strain vs controls: human lenses, 500 mg and 1000 mg loads
# Procedure: In this example, the lenses were dissected from the eyes of mice (C57BL/6J, 5-8 months old, Jackson Laboratories, Stock No. 000664, n=4-5) by a posterior approach and incubated without (“Control”) or with Aggrelyte-2 or Aggrelyte-2C (1 mM) for 24 hours in serum-free and phenol-red-free MEM (297 mOsm) at 37° C. Lens stiffness was measured as previously described in Baradia, H. et al., (2010) Exp. Eye Res. 91, 300-307. Briefly, the lens was placed on a flat platform with the anterior side facing up, and a load was applied to the top of the lens at 100 mg increments for mouse lenses and at 250 mg increments for human lenses. The displacement in the lens axial diameter (in μm or mm) was measured using MATLAB software developed by Dr. Adrian Glasser, UK, and plotted against the load applied. The displacement at a specific load was used to determine differences in lens stiffness between the untreated control and aggrelyte-treated lenses.
# Freshly obtained human lenses (42-68 years old, n=10-12) were incubated with or without Aggrelyte-2 or Aggrelyte-2C (1 mM) for a total of 72 h in phenol red-free MEM with a change in media containing freshly dissolved aggrelytes every 24 h. One lens from each donor pair was used as the control, and the other was treated with aggrelyte. After incubation, the lens stiffness was measured as described above. Axial strain was also calculated based on the following formula: […]
# [7] = test system: water-insoluble (WI) proteins from human lenses; test: Solubilization of water-insoluble (WI) proteins from human lenses (BCA protein assay of supernatant); assay type: biochemical; conditions: 500 μM; for protein in the supernatant / solubilized protein, % of the initial WI protein / solubilized protein, % of the initial protein: ten human lenses (65 to 75 years)
# Procedure: Human lenses (donor age: 55-75 years) were obtained from Saving Sight, Kansas City, MO, and Lions Eye Institute for Transplant & Research, Tampa, FL. The lenses were harvested within 36 hours postmortem, stored with (when used for culturing) or without minimum essential medium (MEM), and shipped to the inventors' laboratory on ice or frozen on dry ice. Lenses shipped on dry ice (used in the presently described and other solubility studies) were stored at −80° C. until use. Each frozen lens was thawed on ice and homogenized with 1.5 mL of PBS in a hand-held glass homogenizer. The homogenate was centrifuged at 20,000×g for 20 min at 4° C. The supernatant was discarded, and the pellet was suspended in 1 mL of homogenization buffer and centrifuged at 20,000×g for 20 min at 4° C. The resulting pellet was lyophilized and designated the water-insoluble (WI) fraction.
# In the present example, the ability of aggrelytes to solubilize WI proteins from a human lens was investigated. Stock solutions (10 mM) of Aggrelyte-2 and Aggrelyte-2C were prepared in 50 mM phosphate buffer. The WI fraction (2 mg) was incubated in 50 mM sodium phosphate buffer (0.4 mL), pH 7.4, at 37° C. with aggrelyte at a final concentration of 0-2000 μM. The mixture was incubated at 37° C. with shaking for 24 or 48 hours after adding 0.002% sodium azide to prevent bacterial growth. After incubation, the samples were centrifuged at 20,000×g for 20 min at 4° C., and the supernatants were collected. Protein in the supernatant was measured using a BCA Protein Assay Kit from Thermo Scientific (Waltham, MA) using BSA as the standard.
# WI fractions from ten aged human lenses (65 to 75 years) were prepared as in Example 3. The WI fractions (2 mg) were incubated in 50 mM sodium phosphate buffer (0.4 mL), pH 7.4, at 37° C. with 500 μM aggrelyte for 24 or 48 hours. Each sample was separately processed three times and analyzed (mean±S.D.).
Structure (SMILES),levels of βC vs Controls [1],"WS content, % higher than in the untreated controls (contralateral lenses) [2] [%]",thiol content [3] [µM],"thiol content, fold higher than in the untreated controls [3] [fold]",lens transparency compared to vehicle-treated lenses [4],levels of γC vs Controls [5],lens stiffness (displacement) vs untreated controls [6],axial strain vs controls [6],protein in the supernatant ([7]; 24-hour incubation) [µg/µL],"solubilized protein, % of the initial WI protein ([7]; 24-hour incubation)","solubilizing WI proteins, fold better than Control or Aggrelyte-2C ([7]; 24 and 48 hours, combined ten lenses) [fold]",protein in the supernatant ([7]; 48-hour incubation) [µg/µL],"solubilized protein, % of the initial protein ([7]; 48-hour incubation)","thiol content, fold increase over Aggrelyte-2-treated samples [3] [fold]","protein solubility, fold less than that of Aggrelyte-2 ([7]; 48 hours, human lens) [fold]"
"COC(=O)[C@H](CSC(C)=O)NC(C)=O [Aggrelyte-2, N,S-diacetyl-L-cysteine methyl ester]",slightly but not significantly higher,13.2,0.3 to 0.7,1.9,did not reduce or otherwise change,slightly but not significantly higher,significantly (p<0.01) reduced lens stiffness,significantly (p<0.01) reduced the axial strain,0.97 to 1.30,20-26%,~1.4,0.96 to 1.48,19-30%,,
"COC(=O)[C@H](CS)NC(C)=O [Aggrelyte-2C, N-acetyl-L-cysteine methyl ester]",no effect,4.6,1.1 to 1.6,4.9,did not reduce or otherwise change,no effect,did not demonstrate significant effects on displacement,did not have a significant effect,0.72 to 0.97,14-19%,,0.68 to 1.12,14-22%,2.6,~1.4
